Laboratory results: patent US20220047720A1, “CONJUGATES AND NANOPARTICLES OF HYALURONIC ACID AND EPIGALLOCATECHIN-3-O-GALLATE AND USES THEREOF” (Agency for Science, Technology and Research, priority 2018, published 2022)
Where a name gives a salt, the structure may show the parent alone.

Tests used:
NB4 cells = test: Quantitative evaluation of differentiation in AML cells (CD11b, CD14, CD15 by flow cytometry); format: cell-based, human; settings: three days, ATRA, PMA (100 ng/mL), A3D8 (0.6 μg/mL), EGCG (38 μM), HA equivalent
Experimental: AML cells were seeded at 1×10^5 cells in 1 mL per well in 24-well plates and were incubated for 2 h with 5% CO2 at 37° C. […] ATRA (1 mM), PMA (100 ng/mL) and A3D8 (0.6 μg/mL) were included as positive controls. After three days of incubation, the cells were harvested and examined for signs of differentiation by assessing cell surface antigen expression. To label the cell surface antigens, the cells were suspended in PBS (pH 7.4) containing 0.2% (v/v) BSA and then incubated at 4° C. for 30 min with mouse anti-human FITC-conjugated CD11b, Cy7-conjugated CD14 and Cy5-conjugated CD15 antibodies (2 μg/mL each). Mouse IgG1 isotype antibody was used as control. After that, the cells were washed three times with PBS containing 0.2% (v/v) BSA and the level of antibody binding was determined by flow cytometry using a fluorescence-activated cell sorter BD LSR II (BD Biosciences, Calif.). Each measurement comprised of acquisition of at least 1×10^4 cells and the analyses were considered as informative when adequate numbers of events (>100) were collected in the enumeration gates. To quantify the percentage of antigen-expressing cells, the cells were defined to be positive for the antigens if they fell within the gating region pre-set to include <2% of untreated control cells.

MOLM-14 cells = test: In vitro anti-leukemic activity, CellTiter-Glo assay, and median-effect combination index; settings: 3 days
Experimental: (§3) MOLM-14 and MV-4-11 cells (ATCC, USA) were maintained in RPMI 1640 media supplemented with 10% (v/v) fetal bovine serum (FBS) and 1% (v/v) penicillin/streptomycin. The cells seeded on white-walled 96-well plates (1×10^4 cells per well) were incubated in 100 μL of 10% FBS-supplemented media containing either sunitinib- or sorafenib-loaded nanoparticles and the respective free drugs at various concentrations. […] After treatment for 3 days, 100 μL of the CellTiter-Glo assay reagent was added to each well of the plates. After incubation for 10 min at 25° C., cellular luminescence was measured using a Tecan Infinite 200 microplate reader (Tecan Group, Switzerland). Results were expressed as percentages of the luminescence signal of analysed cells relative to untreated controls.

[1] = Dispersion stability in water (appearance); format: physicochemical; settings: suspended in water at the same sorafenib concentration
Description: Based on the drug loading capacity and particle size, three compositions were selected for in vitro anti-leukemic activity studies (in Example 3) and were named as Sora-NP-1 to Sora-NP-3 (Table 2). Among them, Sora-NP-1 had the smallest particle size with the lowest sorafenib loading capacity. […] This provides indirect evidence that sorafenib molecules were stably encapsulated in the interior of Sora-NP. The excellent dispersion stability of Sora-NP compositions would be beneficial for their clinical applications.

MV-4-11 cells = test: In vitro anti-leukemic activity, CellTiter-Glo assay, and median-effect combination index; format: cell-based; settings: 3 days
Experimental: as §3

[2] = system: patient-derived AML cells named Leu 14; test: Patient-derived AML xenograft mouse model; format: in vivo
Experimental: All animal experiments were performed according to the protocols approved by IACUC at the Biological Resource Centre, Singapore. A pre-clinical patient-derived liquid xenograft mouse model was established based on a previous report (Z. Her, et al., J. Hematol. Oncol. 2017, 10, 162). Briefly, NOD-scid II2rg^−/− (NSG) newborn pups were sub-lethally irradiated at 1 Gy and engrafted with patient-derived AML cells named Leu 14. When the proportion of human CD45^+ cells in peripheral blood reached around 10-15%, the mice were randomly divided into 3 groups. The first group received intravenous injections of isotonic dextrose solution containing Sora-NP-1 at a sorafenib dose of 0.4 mg kg^−1 twice weekly for 4 weeks. For comparison, another group of mice received intravenous injections of free sorafenib solution prepared in saline-DMSO mixture (95:5, v/v) at an equivalent dose. […] At selected time points, the proportion of human CD45^+ cells in the peripheral blood, spleen and bone marrow was examined by flow cytometry analysis using a LSR II flow cytometer (BD Biosciences).

HEK293 cells = test: In vitro cell viability assay (CellTiter-Glo), normal cells; format: cell-based, human; settings: 72 h
Experimental: (§1) The human AML cell line HL60, human embryonic kidney cell line HEK293 and primary human umbilical vein endothelial (HUVEC) cells were purchased from the American Type Culture Collection (ATCC). The human AML cell lines NB4 was kindly donated by the Cancer Science Institute, Singapore. All the AML cells were cultured in RPMI 1640 medium supplemented with 10% fetal bovine serum (FBS) and maintained in density of 2×10^5 to 1×10^6 cells/mL. HEK293 cells were cultured in DMEM medium supplemented with 10% FBS while HUVEC cells were maintained in EBM™-2 Endothelial Cell Growth Basal Medium supplemented with endothelial cell growth medium SingleQuots™ supplements and growth factors. All the cells were maintained in a humid incubator with 5% CO2 at 37° C.
(§2) All cells (HL60, NB4, HEK293 and HUVEC cells) were seeded at 1×10^4 cells per […] per well in 96-well plates. […] After drug treatment, the cell viability was evaluated using the CellTiter-Glo™ Luminescent Cell Viability Assay Kit (Promega, Madison, Wis.) following the manufacturer's instructions. The luminescence from each well was measured using a Tecan Infinite microplate reader (Tecan Group, Switzerland). The final cell viability values were expressed as percentages derived from the luminescence intensity from the treated cells relative to untreated cells. […]

HUVEC cells = test: as above; format: cell-based, human; settings: 72 h
Experimental: as §1, §2

[3] = equivalent sorafenib concentrations
[4] = equivalent sunitinib concentrations

CC1=C(/C=C/C(C)=C/C=C/C(C)=C/C(=O)O)C(C)(C)CCC1 [ATRA, all-trans retinoic acid]
differentiation marker expression (NB4 cells): greatest increase in the three antigen expression levels and the proportion of antigen-expressing cells

CNC(=O)c1cc(Oc2ccc(NC(=O)Nc3ccc(Cl)c(C(F)(F)F)c3)cc2)ccn1 [free sorafenib, Sorafenib tosylate]
cells eradicated / reduction of the cell viability (MOLM-14 cells; 200 nM sorafenib): ~14% | order of effectiveness (anti-leukemic activity) (MOLM-14 cells; [3]): Sora-NP-1>Sora-NP-2>Sora-NP-3>free sorafenib | Appearance of dispersion in water [1]: heavily flocculated and eventually precipitated | order of effectiveness (anti-leukemic activity) (MV-4-11 cells; [3]): Sora-NP-1>Sora-NP-2>Sora-NP-3>free sorafenib | AML cell proliferation in the peripheral blood (human CD45+ cells) ([2]; i.v., sorafenib dose 0.4 mg kg^−1 twice weekly for 4 weeks, versus untreated control): only a slight delay of AML progression | time at which treated mice started to die ([2]; sorafenib dose 0.4 mg kg^−1): 12 to 14 days

CCN(CC)CCNC(=O)c1c(C)[nH]c(/C=C2\C(=O)Nc3ccc(F)cc32)c1C [free sunitinib, Sunitinib malate]
order of effectiveness (anti-leukemic activity) (MOLM-14 cells; [4]): Suni-NP-1>Suni-NP-2>free sunitinib>Suni-NP-3>Suni-NP-4 | order of effectiveness (anti-leukemic activity) (MV-4-11 cells; [4]): Suni-NP-1>Suni-NP-2>free sunitinib>Suni-NP-3>Suni-NP-4

Epigallocatechin-3-gallate [EGCG]
EGCG equivalent concentration with greater toxicity than HA-EGCG (B) (HEK293 cells): 76 µM | EGCG equivalent concentration range with greater toxicity than HA-EGCG (B) (HUVEC cells): 15 to 76 µM
